According to BindingDB's records for doi:10.1021/acschembio.6b00709 (Technical University of Munich, 2016):

Tests used:
[1] = target: T1, Ephrin type-A receptor 2 [596-900] (Homo sapiens, UniProt P29317); test: Kinobeads Competition Assay
T1 construct: 596-900
T1 sequence (P29317 whole entry): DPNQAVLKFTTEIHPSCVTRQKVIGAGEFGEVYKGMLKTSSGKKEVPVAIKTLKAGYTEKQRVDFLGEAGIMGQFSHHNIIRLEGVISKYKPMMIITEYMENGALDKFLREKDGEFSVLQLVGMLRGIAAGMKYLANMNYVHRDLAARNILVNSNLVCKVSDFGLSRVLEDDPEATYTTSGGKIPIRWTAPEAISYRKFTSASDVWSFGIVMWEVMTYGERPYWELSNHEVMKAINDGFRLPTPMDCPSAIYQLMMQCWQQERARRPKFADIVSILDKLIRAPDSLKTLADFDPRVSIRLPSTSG

[2] = target: T1, Ephrin type-A receptor 2 [596-900]; test: HotSpot Kinase Activity Assay
Excerpt: Refer to Reaction Biology Corps.

Kd [1]	IC50 [2]	Structure (SMILES)
484 nM	–	C[C@@H](NC(=O)c1ncnc(N)c1Cl)c1ncc(C(=O)Nc2cc(C(F)(F)F)c(Cl)cn2)s1 [MLN-2480]
961 nM	–	COc1cccc(Nc2ncnn3ccc(CN4CC[C@@H](N)[C@H](O)C4)c23)c1 [BMS-690514]
458 nM	–	COc1cc2c(Nc3ccc(Cl)c(Cl)c3F)ncnc2cc1OCC1C[C@@H]2CN(C)C[C@@H]2C1 (stereo partly drawn) [7-[[(3aS,6aR)-2-methyl-3,3a,4,5,6,6a-hexahydro-1H-cyclopenta[c]pyrrol-5-yl]methoxy]-N-(3,4-dichloro-2-fluorophenyl)-6-methoxyquinazolin-4-amine]
640 nM	–	COc1cc(N2CCC(N3CCN(C)CC3)CC2)ccc1Nc1ncnc(Nc2ccccc2S(=O)(=O)C(C)C)n1 [ASP-3026]
192 nM	17 nM	Cc1ccc(NC(=O)c2ccc(CN3CC[C@H](N(C)C)C3)c(C(F)(F)F)c2)cc1Nc1ncc(-c2cncnc2)cn1 [4-[[(3S)-3-(dimethylamino)pyrrolidin-1-yl]methyl]-N-[4-methyl-3-[(5-pyrimidin-5-ylpyrimidin-2-yl)amino]phenyl]-3-(trifluoromethyl)benzamide]
869 nM	–	CNC(=O)c1cc(Oc2ccc(NC(=O)Nc3ccc(Cl)c(C(F)(F)F)c3)c(F)c2)ccn1
19 nM	4 nM	CC(C)c1cc(CNc2nc(Nc3cc(C4CC4)[nH]n3)cc(N3CCN(C)CC3)n2)on1 [4-N-(5-cyclopropyl-1H-pyrazol-3-yl)-6-(4-methylpiperazin-1-yl)-2-N-[(3-propan-2-yl-1,2-oxazol-5-yl)methyl]pyrimidine-2,4-diamine]
672 nM	–	CNC(=O)c1nn(C)c2c1C(C)(C)Cc1cnc(Nc3ccc(N4CCN(C)CC4)cc3)nc1-2 [Milciclib]
198 nM	4.8 nM	CCS(=O)(=O)c1cccc(-c2cc(C(=O)NC3CCN(C)CC3)c(C)c3[nH]c4ncc(C)cc4c23)c1 [5-(3-ethylsulfonylphenyl)-3,8-dimethyl-N-(1-methylpiperidin-4-yl)-9H-pyrido[2,3-b]indole-7-carboxamide]
259 nM	–	COc1cc2nccc(Oc3ccc(NC(=O)Nc4cc(C)on4)c(Cl)c3)c2cc1OC [Tivozanib]
338 nM	–	CN1CCN(CCOc2cc(OC3CCOCC3)c3c(Nc4c(Cl)ccc5c4OCO5)ncnc3c2)CC1
187 nM	48 nM	COc1cc(Nc2ncc3c(n2)-c2ccc(Cl)cc2C(c2c(F)cccc2OC)=NC3)ccc1C(=O)O [Alisertib]
